Source: patent US11845774B2, “Sterol derivatives and preparation method and uses thereof” (BEIJING PEKING UNIVERSITY WBL BIOTECH CO., LTD., priority 2011, dated 2023)

What was measured:
[1] = tested on: human tissue lymphoma cell U937; assay: MTT test of inhibiting cancer cells, U937; format: cell-based; details: U-937, 72 hours, FIG. 7, read-out: IC50 value, growth of U937
Method: (§1) Cancer cells of exponential growth phase were inoculated on 96-well plate, 2×10^4 cells/well, added with drug until final drug concentrations were: 500, 250, 125, 62.5, 31.25, 15.625 and 7.8125 μg/mL, cultured at 37° C. in 5% CO2 cell culture incubator for 72 hours, then added with MTT, 10 μL/well, incubated in dark at 37° C. for 4 hours, culture medium was removed, 150 μL of DMSO or acidified isopropanol was added, vibrated for 5 minutes, and then OD values were measured under wavelength of 570 nm. This was repeated for 3 times, and a blank control was set. These cell strains used the same culture medium, i.e., RPMI1640 culture medium containing 10% fetal bovine serum and 1% double antibody (penicillin and steptomycin).
(§2) Calculation Formula: Cell survival rate=(OD value of test group/OD value of control group)×100%.

[2] = tested on: mice hepatoma cell line H22; assay: MTT test of inhibiting cancer cells, H22; format: cell-based; details: Mus musculus, 72 hours, FIG. 2, read-out: IC50 value, growth of H22
Method: as §1, §2

[3] = tested on: human colon cancer cell strain HCT116; assay: MTT test of inhibiting cancer cells, HCT116; format: cell-based; details: 72 hours, FIG. 1, concentration-effect relationship
Method: as §1, §2

[4] = tested on: mice sarcoma cell line S180; assay: MTT test of inhibiting cancer cells, S180; format: cell-based; details: 72 hours, FIG. 4, concentration-effect relationship
Method: as §1, §2

[5] = biological target: T1, Porcine pancreatic lipase (Sus scrofa, UniProt P00591); assay: Test of activity of inhibiting lipase (copper oleate colorimetry, olive oil substrate); format: biochemical, pig; details: for Absorbance: 714 nm, blank control 0.6680; for Enzyme activity: blank control 1.69; for Concentration of generated oleic acid: blank control 2.75
T1 construct: purchased Sigma
T1 sequence (P00591 1-450): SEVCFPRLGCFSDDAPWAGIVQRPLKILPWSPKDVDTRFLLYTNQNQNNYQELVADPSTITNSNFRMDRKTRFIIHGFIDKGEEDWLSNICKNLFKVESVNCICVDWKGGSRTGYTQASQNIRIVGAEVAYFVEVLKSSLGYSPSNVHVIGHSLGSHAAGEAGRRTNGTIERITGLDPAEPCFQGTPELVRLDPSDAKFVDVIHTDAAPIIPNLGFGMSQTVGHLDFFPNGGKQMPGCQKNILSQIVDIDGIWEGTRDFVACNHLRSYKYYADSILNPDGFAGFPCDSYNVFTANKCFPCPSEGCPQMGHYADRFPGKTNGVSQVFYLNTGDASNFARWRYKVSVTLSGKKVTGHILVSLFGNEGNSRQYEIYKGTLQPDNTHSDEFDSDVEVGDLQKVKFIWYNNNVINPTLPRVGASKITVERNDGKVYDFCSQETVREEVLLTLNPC
Method: 2.1 Preparation of light absorbance working curve for fatty acid: a series of oleic acid-toluene solutions with different concentrations (0-3.5 mmol/L, separately being 0, 0.225, 0.45, 0.675, 0.9, 1.125, 1.35, 1.8, 2.25, 2.7, and 3.5 mmol/L), 4 mL of each was taken and placed in conical flask, added with 1 mL of color developing agent, stirred with magnetic force for 3 minutes, oleic acid molecules and copper ions formed a green complex compound, after centrifugation, organic phase of upper layer was taken and measured at 714 nm to determine light absorbance.
2.2 Enzyme solution was 0.5 mg/mL pancreatic lipase solution; buffer solution was 0.07M NaH2PO4—K2HPO4 phosphate buffer solution (pH 7.0); color developing agent was 5% copper acetate solution, which was regulated with pyridine to have pH 6.1.
3 mL of 0.07M phosphate buffer solution and 1 mL of olive oil were pre-heated at a constant temperature of 37° C. for 5 minutes in water bath under agitation with a magnetic stirrer, added with 1.3 mL of enzyme solution (negative control was that without enzyme inhibitor; positive control is that added with 100 μL of 0.1 mg/mL orlistat solution; […]), stirred with magnetic force for 10 minutes, immediately added with 8 mL of toluene, stirred continuously for 2 minutes, the reaction was terminated, the generated oleic acid was extracted. The solutions were transferred to centrifuge tube, centrifuged under 4000 rpm for 10 minutes, and the organic phase and water phase were layered and clarified. 4 mL of the upper layer organic phase was taken and placed in a small conical flask, added with 1 mL of color developing agent, stirred with magnetic stirrer for 3 minutes, the generated oleic acid reacted with copper ions to form green complex compound. After centrifugation under 4000 rpm for 10 minutes, the upper layer of toluene solution containing copper oleate was taken, and measured with a spectrophotometer at 714 nm to determine its light absorbance. A blank solution without lipase was prepared as control by the same method, and concentration of fatty acid could be determined by referring to light absorbance working curve of oleic acid.
Enzyme activity unit of lipase was defined as follows: an enzyme amount to release 1 μmol fatty acid under certain condition was defined as 1 unit of lipase activity (U).
The following formula was used to calculate enzyme activity: X=(cV)/(tV′)
wherein: X represents enzyme activity of lipase, U/mL; c represents concentration of fatty acid, […]; V represents volume of fatty acid solution, mL; V′ represents amount of enzyme solution, mL; t represents action time, minute. Inhibition rate=[(enzyme activity of lipase−enzyme activity of lipase after inhibition)/enzyme activity of lipase]×100%

[6] = tested on: mice melanoma cell B16-F10; assay: MTT test of inhibiting cancer cells, B16-F10; format: cell-based; details: Mus musculus, 72 hours, FIG. 8, read-out: IC50 value, growth of B16-F10
Method: as §1, §2

HepG2 cells = assay: MTT test of inhibiting cancer cells, HepG2; format: cell-based; details: Homo sapiens, 72 hours, FIG. 3, read-out: IC50 value, growth of human hepatoma cell line
Method: as §1, §2

[7] = tested on: human mononuclear lymphoma cell THP1; assay: MTT test of inhibiting cancer cells, THP1; format: cell-based; details: THP-1, 72 hours, FIG. 6, read-out: IC50 value, growth of THP1
Method: as §1, §2

mice lymphoma cell YAC-1 = assay: MTT test of inhibiting cancer cells, YAC-1; format: cell-based; details: Mus musculus, 72 hours, FIG. 5, read-out: IC50 value, growth of YAC-1
Method: as §1, §2

[8] = final concentration of inhibitor in the system 111 μg/mL
[9] = final concentration of inhibitor in the system 166 μg/mL
[10] = final concentration of inhibitor in the system 203 μg/mL
[11] = final concentration of inhibitor in the system 240 μg/mL
[12] = final concentration of inhibitor in the system 333 μg/mL

Structure (SMILES): C[C@@H](C(O)C1OC2C[C@H]3C4=CC=C5CC(O)CC[C@]5(C)[C@H]4CC[C@]3(C)[C@H]2[C@@]1(C)O)C(C)(C)O (some centres unmarked) [Compound of Formula II, 16,22-epoxy-ergosta-5,7-dien-3,20,23,25-tetraol]
- IC50 [1]: ~50 µg/mL
- IC50 [2]: ~50 µg/mL
- inhibition effect on growth of HCT116 (in words) [3]: inhibition effect
- inhibition effect on growth of S180 (in words) [4]: inhibition effect
- Absorbance [5, 8]: 0.5665
- Absorbance [5, 9]: 0.5035
- Absorbance [5, 10]: 0.3998
- Absorbance [5, 11]: 0.2743
- Absorbance [5, 12]: 0.2611
- Inhibition rate [5, 8]: 15.38%
- Enzyme activity [5, 8]: 1.43 U/mL
- Concentration of generated oleic acid [5, 8]: 2.32 mM
- Inhibition rate [5, 9]: 24.85%
- Enzyme activity [5, 9]: 1.27 U/mL
- Concentration of generated oleic acid [5, 9]: 2.06 mM
- Inhibition rate [5, 10]: 40.83%
- Enzyme activity [5, 10]: 1.00 U/mL
- Concentration of generated oleic acid [5, 10]: 1.63 mM
- Inhibition rate [5, 11]: 59.76%
- Enzyme activity [5, 11]: 0.68 U/mL
- Concentration of generated oleic acid [5, 11]: 1.10 mM
- Inhibition rate [5, 12]: 62.13%
- Enzyme activity [5, 12]: 0.64 U/mL
- Concentration of generated oleic acid [5, 12]: 1.04 mM
- IC50 ([5]; read-out: IC50 value, inhibition of activity of lipase (converted)): ~478 µM
- IC50 [6]: ~62.5 µg/mL
- IC50 (HepG2 cells): ~200 µg/mL
- IC50 [7]: ~250 µg/mL
- IC50 (mice lymphoma cell YAC-1): ~62.5 µg/mL
